Test results from publication PMC4650693, “Characterization of two-step deglycosylation via oxidation by glycoside oxidoreductase and defining their subfamily” (Scientific Reports, 2015).

Molecular target: T1, FAD-GO from Rhizobium sp. GIN611 (Rhizobium sp. GIN611, UniProt G9ILI7)
T1 construct: recombinant, expressed in E. coli Rosetta-gami 2 (DE3, pLysS)
T1 sequence (G9ILI7 1-561): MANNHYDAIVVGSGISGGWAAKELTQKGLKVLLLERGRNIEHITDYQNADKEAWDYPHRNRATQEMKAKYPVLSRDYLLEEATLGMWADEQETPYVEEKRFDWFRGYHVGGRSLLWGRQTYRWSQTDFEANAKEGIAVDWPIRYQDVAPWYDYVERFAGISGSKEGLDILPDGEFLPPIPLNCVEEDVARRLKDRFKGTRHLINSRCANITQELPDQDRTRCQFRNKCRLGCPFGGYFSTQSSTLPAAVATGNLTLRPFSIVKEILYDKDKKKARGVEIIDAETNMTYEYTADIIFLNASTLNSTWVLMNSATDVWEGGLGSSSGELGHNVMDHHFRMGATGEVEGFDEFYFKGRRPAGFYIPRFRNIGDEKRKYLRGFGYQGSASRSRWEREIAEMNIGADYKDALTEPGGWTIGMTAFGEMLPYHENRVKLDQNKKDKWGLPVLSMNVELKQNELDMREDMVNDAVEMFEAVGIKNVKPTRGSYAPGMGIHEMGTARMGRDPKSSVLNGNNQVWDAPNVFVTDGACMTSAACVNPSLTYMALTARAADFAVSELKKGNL
Test: HPLC of oxidation and deglycosylation products
Type: biochemical
Conditions: C3-OH of glucose oxidised; FAD enzyme, O2
Excerpt: HPLC of oxidation and deglycosylation products on FAD-GO from Rhizobium sp.

SMILES: CC(C)=CCC[C@](C)(O[C@@H]1O[C@H](CO)[C@@H](O)[C@H](O)[C@H]1O)[C@H]1CC[C@]2(C)[C@@H]1[C@H](O)C[C@@H]1[C@@]3(C)CC[C@H](O)C(C)(C)[C@@H]3CC[C@]12C [CK, Compound K]
- HPLC of oxidation and deglycosylation products: HPLC chromatogram of enzyme reactions using wild type, H493F mutant or H493A mutant enzyme
